Test results from article PMC7024313, “Identification and Repurposing of Trisubstituted Harmine Derivatives as Novel Inhibitors of Mycobacterium tuberculosis Phosphoserine Phosphatase” (Molecules, 2020).

What follows are molecules tested against T1, SerB2 (M. tuberculosis phosphoserine phosphatase) (Mycobacterium tuberculosis, UniProt O53289) (assay: malachite green phosphatase assay, slope replot fitted to Hill-type model).
Type: biochemical
Description: malachite green phosphatase assay, slope replot fitted to Hill-type model on SerB2 (M. tuberculosis phosphoserine phosphatase)

T1 sequence (O53289 whole entry): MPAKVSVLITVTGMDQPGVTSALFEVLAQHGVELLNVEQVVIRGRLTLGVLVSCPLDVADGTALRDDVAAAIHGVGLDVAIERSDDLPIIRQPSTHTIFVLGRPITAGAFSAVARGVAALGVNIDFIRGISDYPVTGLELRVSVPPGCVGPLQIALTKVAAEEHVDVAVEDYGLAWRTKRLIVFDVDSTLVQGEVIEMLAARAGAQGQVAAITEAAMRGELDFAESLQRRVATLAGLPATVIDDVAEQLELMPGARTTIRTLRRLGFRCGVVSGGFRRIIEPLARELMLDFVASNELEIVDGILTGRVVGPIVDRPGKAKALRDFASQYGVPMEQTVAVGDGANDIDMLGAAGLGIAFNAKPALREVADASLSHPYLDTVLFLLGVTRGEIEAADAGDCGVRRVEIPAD

SMILES | Ki
Cc1c2c(cc[n+]1Cc1ccc3ccccc3c1)c1ccc(OCc3ccccc3)cc1n2Cc1ccccc1 [compound 95, 95] | 6.66 ± 0.39 µM
Cc1c2c(cc[n+]1CCc1ccccc1)c1ccc(OCC3CCCCC3)cc1n2CC1CCCCC1 [compound 91, 91] | 3.27 ± 0.12 µM
Cc1c2c(cc[n+]1CCC(C)C)c1ccc(OCCC(C)C)cc1n2CCC(C)C [compound 88, 88] | 18.3 ± 2.3 µM
Cc1c2c(cc[n+]1CCC1CCCCC1)c1ccc(OCC3CCCCC3)cc1n2CC1CCCCC1 [compound 124, 7-(cyclohexylmethoxy)-9-(cyclohexylmethyl)-1-methyl-2-(2-cyclohexylethyl)-β -carboline-2-ium bromide] | 1.75 ± 0.11 µM

These molecules were tested against T1, SerB2 (M. tuberculosis phosphoserine phosphatase) (assay: malachite green phosphatase assay).
Type: biochemical
Description: malachite green phosphatase assay on SerB2 (M. tuberculosis phosphoserine phosphatase)

SMILES | inhibition at 10 µM
Cc1c2c(cc[n+]1CCc1ccccc1)c1ccc(OCc3ccccc3)cc1n2Cc1ccccc1 [compound 94, 94] | 15.6 ± 4.3%
Cc1c2c(cc[n+]1CCC(C)C)c1ccc(OCC3CCCCC3)cc1n2CC1CCCCC1 [compound 90, 90] | 16.5 ± 13.3%
